This note sets out measurements from PubChem BioAssay AID550 (SRMLSC, 2006).

In general, IC50 refers to the concentration needed to halve the response being measured.

The source made the active and inactive calls.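 Rule for the calls: active = clearly stronger inhibition of the target decarboxylase than of the coupling enzymes tested in parallel without it; inactive = the rest.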

The target in the assay is diphosphomevalonate decarboxylase (Streptococcus pneumoniae D39). As to the kind of experiment: diphosphomevalonate decarboxylase inhibition dose curves – biochemical, PK/LDH-coupled NADH fluorescence, hexokinase coupling counter-screen, dose response (AID 550). The following applies: purified DPM-DC. For orientation: A counterscreen serves to expose hits that act by an unwanted route or on another target.
Take `CCOC(=O)C(Cc1ccccc1)C(=O)Nc1nccs1` (configuration not stated): the result was inactive.

Regarding `COc1cccc2cc3c(=O)n(-c4ccccc4)nc-3oc12`, the result was inactive.

Consider `Cc1cccc2cc(CN(Cc3ccco3)S(=O)(=O)c3ccc4c(c3)OCCO4)c(=O)[nH]c12`, for which the outcome was inactive.

For the molecule `CCOC(=O)C1=C(C)NC(C)=C(C(=O)OCC)C1c1cc2ccc(C)cc2[nH]c1=O`, the 50% inhibitory concentration (IC50) was 150 µM.

For `Cc1c(C(=O)NC2CC2)oc2ccc(S(=O)(=O)N3CCCCCC3)cc12`, the outcome was inactive.

In the case of `O=C1NC(=O)C(CC(=O)N(c2ccccc2)C2(C(=O)NC3CCCC3)CCCCC2)N1` (configuration not stated), the result was inactive.

For the molecule `CC(=NCc1ccco1)c1c(C)[nH]n(-c2nc3ccccc3s2)c1=O`, the outcome was inactive.

Regarding `CC1Cc2nc(SCC(=O)Nc3ccc4c(c3)OCO4)n(CCc3ccccc3)c(=O)c2S1` (configuration not stated), the outcome was inactive.

On to `Cc1cccc(C(=O)Nc2cc(=O)n(C)c(=O)n2C)c1`, for which the outcome was inactive.

For `CCOc1ccc(N2CC(C(=O)OC)CC2=O)cc1` (configuration not stated), the outcome was inactive.

Consider `CCCn1c(=O)c2ccccc2n2c(SCC(=O)/C(C#N)=C(\C)N)nnc12`, for which the outcome was inactive.

For the molecule `Cc1cc(=O)[nH]c(/N=C(\N)Nc2cccc3ccccc23)n1`, the outcome was inactive.

As for `COc1cc2c(cc1NC(=O)c1ccc3c(c1)OCO3)oc1ccccc12`, the outcome was inactive.

In the case of `CC(NC(=O)c1cccc(N2CCCC2=O)c1)c1ccc2c(c1)OCCO2` (configuration not stated), the result was inactive.

In the case of `COc1ccc(C2CC(c3cccc(C)c3)n3nc(N)nc3N2)cc1` (configuration not stated), the outcome was inactive.

As for `COC(=O)Cn1c(=NC(=O)CSC(C)=O)sc2ccccc21`, the result was inactive.

Regarding `CCOC(=O)c1cncc(NC(=O)c2ccccc2)c1`, the result was inactive.

Regarding `CCN(CC)CCOC(=O)c1ccc(N=CC2=C(O)CC(C)(C)CC2=O)cc1`, the outcome was inactive.

With `Cn1c(=NC(=O)c2ccco2)sc2cccc(F)c21`, the outcome was inactive.

In the case of `COc1ccccc1NC(=O)CSc1nc(O)cc(=O)n1-c1ccccc1OC`, the result was inactive.

Consider `CCOC(=O)c1c(CC(C)C)csc1NC=O`, for which the outcome was inactive.

Turning to `O=C(c1noc2c1CCCC2)N1CCCCC1`, the outcome was inactive.

With `COc1ccc(C(c2nnnn2CC2CCCO2)N2CCN(c3ccccc3)CC2)cc1` (configuration not stated), the result was inactive.

Turning to `Nc1nc(N)c2sc3nc4c(cc3c2n1)CCC4`, the result was inactive.

For `CCc1ccc(S(=O)(=O)NCc2cn3ccsc3n2)s1`, the result was inactive.

For the molecule `CCCCCn1c(SCC#N)nc2cc(C(=O)NCC3CCCO3)ccc2c1=O` (configuration not stated), the result was inactive.

As to `COCCOC(=O)c1c(C)oc2ccc(NS(=O)(=O)c3ccc(F)cc3)cc12`, the result was inactive.

As to `O=C1C(Cl)=C(NCC2CCCO2)C(=O)N1Cc1ccccc1` (configuration not stated), the result was inactive.

For `Cc1cc(-c2ccccc2)nc2cc(C(N)=O)nn12`, the outcome was inactive.

In the case of `N#Cc1c(C(F)(F)F)cc(-c2ccco2)nc1SCc1ccncc1`, the result was inactive.

On to `CCOc1ccc(N(CC(=O)NC2CCCC(C)C2C)S(=O)(=O)c2c(C)noc2C)cc1` (configuration not stated), for which the outcome was inactive.

Consider `COc1ccccc1NC(=O)C1=C(C)NC2=C(C(=O)CCC2)C1c1ccc2c(c1)OCO2` (configuration not stated), for which the IC50 is 76.3 µM.

As for `CCN(CC)c1nc2ccccc2n2cnnc12`, the outcome was inactive.

As for `Cc1cc(N2CCN(C3CCCC3)CC2)n2nc(C)c(-c3ccccc3)c2n1`, the result was inactive.

Take `CC(C)(CO)NC(=O)C(c1ccccc1)c1ccccc1`: the result was inactive.

In the case of `CCN(CC)CCCN(Cc1cc2cc3c(cc2[nH]c1=O)OCCO3)C(=O)Nc1ccccc1`, the result was inactive.

Take `CCOc1nc(-c2ccccc2)ccc1-c1noc(-c2ccc(OC)c(OC)c2)n1`: the outcome was inactive.
